Assays:
[1] = system: normal and senescent A549 cells; test: Senescent cell clearance index (senolytic index); type: cell-based, human; details: higher index = greater specificity
Procedure: (§1) In this example, human non-small cell lung cancer cell line (A549 cells), human embryonic lung fibroblast cell line (IMR90 cells), human retinal pigment epithelial cells (RPE cells), mouse chondrocytes, and mouse skin fibroblasts were selected. The cells above were induced to obtain senescent cells by etoposide (10 μM). The effect of the target compounds RZ001-RZ006 and RZ201 on the viability of normal and senescent cells above was detected, thereby evaluating the specific killing effect of the prodrugs RZ001-RZ006 and RZ201 on senescent cells above.
(§2) Briefly, senescent and normal cells above were selected and plated separately (96-well plates). After adding the compounds RZ001-RZ006 and RZ201 (concentration: 1 μM) for 72 hours, CellTiter-Glo® Luminescent Cell Viability Assay Kit (Promega) was used to detect cell viability, and the results were shown in FIGS. 2A to 2E.
Furthermore, the senescent cell clearance index (senolytic index) was also calculated for both normal and senescent A549 cells, as shown in Table 4. A higher index indicates greater specificity in eliminating senescent cells and better safety.

[2] = system: normal A549 cells, IMR90 cells, RPE cells, mouse chondrocytes, mouse skin fibroblasts; test: Cell viability of normal cells (CellTiter-Glo); type: cell-based, human; details: 1 μM, 72 hours, FIGS. 2A to 2E
Procedure: as §1, §2

[3] = system: senescent A549 cells, IMR90 cells, RPE cells, mouse chondrocytes, mouse skin fibroblasts; test: Cell viability of senescent cells (CellTiter-Glo); type: cell-based, human; details: 1 μM, 72 hours; etoposide (10 μM)-induced senescent cells; FIGS. 2A to 2E
Procedure: as §1, §2

[4] = system: idiopathic pulmonary fibrosis; test: Bleomycin idiopathic pulmonary fibrosis animal model; type: in vivo, SD rats; details: intraperitoneal (IP) 5 mg/kg, 3 consecutive weeks from day 7; Day 28; FIG. 6
Procedure: In this example, the efficacy of the compounds of the present disclosure was tested on idiopathic pulmonary fibrosis in an idiopathic pulmonary fibrosis animal model. Briefly, anesthetized 6-week-old SD rats were fixed on a foam board with medical tape. Firstly, the skin on the surface of the trachea was cut with surgical scissors to fully expose the trachea, and a 100-microlitre micro-syringe containing a certain volume of bleomycin (BLM 5 mg/kg) solution drawn based on the body weight of the rat was inserted into the trachea through the oral cavity to administer by slow bolus injection. After administration of the BLM solution, the foam plate was immediately rotated and shaken to distribute the BLM solution as evenly as possible in the lung tissue. Then the skin on the surface of the trachea was sutured with surgical sutures and about 0.5 to 1.0 mL of penicillin solution was dripped onto the epidermis to prevent infection of the surgical wound. After the 7th day of modelling, the compound solution of the present disclosure was administered via intraperitoneal (IP) injection (5 mg/kg) according to the weight of the rat for 3 consecutive weeks. Rats were euthanized by carbon dioxide at Day 28, the lung tissues were removed, the left alveolar lavage fluid was collected for white blood cell (WBC) counting, the right lung tissue portion was used for hydroxyproline (HYP) assay, and the remaining lung tissues were stained for pathology by H&E staining and Masson staining.

renal fibrosis = test: Renal fibrosis animal model (ureter ligation); type: in vivo, mice; details: intraperitoneal (IP) injection from 2nd week of modelling; FIG. 11
Procedure: In this example, the efficacy of the compound of the present disclosure was tested on renal fibrosis in an animal model of renal fibrosis. Briefly, C57BL/6J mice, male, 7 to 8 weeks old, were used. The mice were anaesthetized, made to lie supine on a foam board, and disinfected with iodophor, and a longitudinal incision was made in the skin in the middle of the lower abdomen to locate the white line of the abdominal muscle, where the abdominal muscle, fascia and peritoneal layer were dissected. After exposing the surgical field, the kidneys were exposed by pushing the stomach and mesentery of the mice to the right side with a gauze soaked with saline. The model of renal fibrosis was constructed by locating the transparent ureter from the renal pelvis along the renal artery, separating the left ureter, ligating the upper ⅓ of the left ureter, suturing the incision layer by layer, and finally disinfecting with iodophor. Dosing via intraperitoneal injection was started from the 2nd week of modelling. At the end of the experiment, the mouse serum was collected and kidney tissues were taken for Masson staining index assay.

Alzheimer's disease = test: APP×PS1 transgenic mouse model of Alzheimer's disease; type: in vivo; details: intraperitoneal injection, twice a week, 11 consecutive weeks; cerebral cortex; FIG. 8
Procedure: In this example, the efficacy of the compounds of the present disclosure was tested on Alzheimer's disease in an animal model of Alzheimer's disease. Briefly, a transgenic mouse model of APP×PS1 (purchased from Cyagen Biosciences) was selected and the compound of the present disclosure was administered by intraperitoneal injection for 11 consecutive weeks, twice a week. Alterations in amyloid in the cerebral cortex of the mice were observed.

diabetic retinopathy = test: Mouse model of diabetic retinopathy (STZ), Evans blue penetration; type: in vivo; details: intravitreal (IVT), 1 μL of 200 μM at 8 and 9 weeks after STZ; Evans blue at 10 weeks; FIG. 4
Procedure: The efficacy of the compounds of the present disclosure was studied in a mouse model of diabetic retinopathy by multiple administrations of streptozotocin (STZ). C57BL/6J mice at 6 to 7 weeks were weighed and their baseline blood glucose was measured (Sino). STZ (Sigma-Aldrich) was injected intraperitoneally into the mice at 55 mg/Kg for five consecutive days. Age-matched controls were injected with buffer only. Blood glucose was measured again one week after the last STZ injection. 1 μL of the test compound (200 μM, a suspension formulated in 0.015% polysorbate 80, 0.2% sodium phosphate, 0.75% sodium chloride, pH 7.2) was injected intravitreally into the STZ-treated diabetic C57BL/6J mice at 8 and 9 weeks after STZ administration. 10 weeks after STZ treatment, the retinal Evans blue penetration assay was performed.

osteoarthritis = test: Osteoarthritis animal model; type: in vivo, mice; details: intra-articular injection; FIG. 7
Procedure: In this example, the efficacy of the compounds of the present disclosure was tested on osteoarthritis in an osteoarthritis animal model.
The osteoarthritis animal model was constructed by the following steps. The mice were anesthetized with isoflurane, and fixed. The hair on the right hind limb of the mice was shaved and the skin was disinfected with alcohol, and the skin of the joints was cut. Under an optical microscope, the inside of the right knee joint was incised longitudinally with a blade, without cutting the patellar ligament. The patellar ligament was pulled to one side with constant hemostasis by compression with sterile cotton swabs such that the joint cavity was fully exposed. Saline was added dropwise in time to avoid the drying up of the joint cavity. The excess muscle tissue was gently separated with a blunt forceps to expose the meniscus ligament. The anterior cruciate ligament was found in the depth of the joint cavity and cut with micro scissor. Then the wound was disinfected with penicillin solution, the muscle was sutured with sterile needle and thread, and the skin tissue was finally sutured. The efficacy of the drug was determined by intra-articular injection administration. At the endpoint of the test, continued pain threshold of the plantar was detected, and the bone joints were stained with safranin fast green.

[5] = system: wet-age-related macular degeneration (CNV); test: CNV animal model of wet age-related macular degeneration; type: in vivo, mice; details: intravitreal (IVT); laser CNV model; FIG. 5
Procedure: In this example, the efficacy of the compounds of the present disclosure was tested on wet-age-related macular degeneration in a CNV animal model.
Male mice were administered 0.5% probacaine hydrochloride (Alcon) for local anesthesia, and 1% tropicamide to dilate the pupils of the mice. Laser cauterization was performed using a laser photocoagulator (Novus Varia, LUMENIS) with a slit lamp delivery system. And artificially torn adherent glass coverslips were used as contact lenses. Bleeding spots caused by laser were not included in the statistical data.

hepatic fibrosis = test: CCl4 mouse model of hepatic fibrosis; type: in vivo, mice; details: intraperitoneal (IP) injection twice a week from third week of modelling; FIG. 9
Procedure: In this example, the efficacy of the compounds of the present disclosure was tested on hepatic fibrosis in an animal model of hepatic fibrosis. Briefly, C57BL/6N mice, male, 7 to 8 weeks old, 24 to 28 g of body weight, were used. The mouse model of hepatic fibrosis was induced by intraperitoneal injection of CCl4 solution at a dosage of 1 mL/kg, with a dosing frequency of 2 times/week, and a modelling cycle of 6 weeks. Dosing via intraperitoneal injection was started from the third week of modelling twice a week. At the end of the test, serum was collected, and liver tissue was taken for Masson staining index assay.

aging skin = test: Aging skin in naturally aging mouse model; type: in vivo; details: skin application twice a week, 6 consecutive weeks; aged female mice (22 months old); FIG. 10
Procedure: In this example, aged female C57bl/6J mice (22 months old) were used. The drug was administered by skin application at twice a week for 6 consecutive weeks.

## Cc1c(-c2ccc(N3CCc4cccc(C(=O)Nc5nc6ccccc6s5)c4C3)nc2C(=O)OC(C)OC(=O)OC(C)C)cnn1CC12CC3CC(CC(C3)C1)C2 (stereo not drawn) [RZ010]
[1]
  senescent cell clearance index (Senolytic Index): C (C represents 50 to 100)

## CCOC(=O)OCOC(=O)c1nc(N2CCc3cccc(C(=O)Nc4nc5ccccc5s4)c3C2)ccc1-c1cnn(CC23CC4CC(CC(C4)C2)C3)c1C [RZ006]
[1]
  senescent cell clearance index (Senolytic Index): B (B represents 100 to 200)

## CC(=O)OCOC(=O)c1nc(N2CCc3cccc(C(=O)Nc4nc5ccccc5s4)c3C2)ccc1-c1cnn(CC23CC4CC(CC(C4)C2)C3)c1C [RZ005]
[1]
  senescent cell clearance index (Senolytic Index): B (B represents 100 to 200)

## CCCCOC(=O)c1nc(N2CCc3cccc(C(=O)Nc4nc5ccccc5s4)c3C2)ccc1-c1cnn(CC23CC4CC(CC(C4)C2)C3)c1C [RZ008]
[1]
  senescent cell clearance index (Senolytic Index): F (F represents less than 10)

## Cc1c(-c2ccc(N3CCc4cccc(C(=O)Nc5nc6ccccc6s5)c4C3)nc2C(=O)OCOC(=O)C(C)(C)C)cnn1CC12CC3CC(CC(C3)C1)C2 [RZ003]
[1]
  senescent cell clearance index (Senolytic Index): B (B represents 100 to 200)

## CCOC(=O)c1nc(N2CCc3cccc(C(=O)Nc4nc5ccccc5s4)c3C2)ccc1-c1cnn(CC23CC4CC(CC(C4)C2)C3)c1C [RZ202]
[1]
  senescent cell clearance index (Senolytic Index): F (F represents less than 10)

## Cc1c(-c2ccc(N3CCc4cccc(C(=O)Nc5nc6ccccc6s5)c4C3)nc2C(=O)O)cnn1CC12CC3CC(CC(C3)C1)C2 [Compound A-1331852, reference compound]
[1]
  senescent cell clearance index (Senolytic Index): D (D represents 30 to 50)
[2]
  cytotoxicity against normal cells (cell viability): significant cytotoxicity against normal cells
[3]
  cytotoxicity against senescent cells (cell viability): killing senescent cells

## Cc1c(-c2ccc(N3CCc4cccc(C(=O)Nc5nc6ccccc6s5)c4C3)nc2C(=O)OCOC(=O)OC(C)C)cnn1CC12CC3CC(CC(C3)C1)C2 [RZ002]
[4]
  HYP (hydroxyproline, lung tissue): statistically significant improvements
  WBC (white blood cell count, alveolar lavage fluid): statistically significant improvements
  pathology scores (H&E and Masson staining, lung): statistically significant improvements
Renal fibrosis
  pathology (kidney, Masson staining): statistically significant improvements
  serum creatinine (Cr) levels: statistically significant improvements
  serum urea nitrogen (BUN) levels: statistically significant improvements
Alzheimer's disease
  Aβ42 pathogenic protein indicators: statistically significant improvements
Diabetic retinopathy
  vascular permeability in both the retinal and choroidal vascular leakage: improved vascular permeability
[1]
  senescent cell clearance index (Senolytic Index): B (B represents 100 to 200)
osteoarthritis
  pathology scores of safranin fast green staining: statistically significant improvements
  plantar mechanical pain threshold: statistically significant improvements
[5]
  fluorescence intensity indicators: statistically significant improvements
Hepatic fibrosis
  pathology scores (liver, Masson staining): statistically significant improvements
  serum alanine aminotransferase (ALT) levels: statistically significant improvements
  serum aspartate aminotransferase (AST) levels: statistically significant improvements
Aging skin
  epidermal thickness scores of the skin: statistically significant improvements

## Cc1c(-c2ccc(N3CCc4cccc(C(=O)Nc5nc6ccccc6s5)c4C3)nc2C(=O)OCCN2CCOCC2)cnn1CC12CC3CC(CC(C3)C1)C2 [RZ011]
[1]
  senescent cell clearance index (Senolytic Index): F (F represents less than 10)

## CCC(=O)OC(OC(=O)c1nc(N2CCc3cccc(C(=O)Nc4nc5ccccc5s4)c3C2)ccc1-c1cnn(CC23CC4CC(CC(C4)C2)C3)c1C)C(C)C (stereo not drawn) [RZ007]
[1]
  senescent cell clearance index (Senolytic Index): B (B represents 100 to 200)

## Cc1c(-c2ccc(N3CCc4cccc(C(=O)Nc5nc6ccccc6s5)c4C3)nc2C(=O)OCOC(=O)[C@@H](N)C(C)C)cnn1CC12CC3CC(CC(C3)C1)C2 [RZ301]
[1]
  senescent cell clearance index (Senolytic Index): B (B represents 100 to 200)

## Cc1c(-c2ccc(N3CCc4cccc(C(=O)Nc5nc6ccccc6s5)c4C3)nc2C(=O)OC(C)OC(=O)C(C)C)cnn1CC12CC3CC(CC(C3)C1)C2 (stereo not drawn) [RZ009]
[1]
  senescent cell clearance index (Senolytic Index): B (B represents 100 to 200)

## CCCC(=O)OCOC(=O)c1nc(N2CCc3cccc(C(=O)Nc4nc5ccccc5s4)c3C2)ccc1-c1cnn(CC23CC4CC(CC(C4)C2)C3)c1C [RZ004]
[1]
  senescent cell clearance index (Senolytic Index): B (B represents 100 to 200)

Reference: patent publication US20250376466A1, “ESTER COMPOUNDS AND USE THEREOF” (NANJING REJU THERAPEUTICS, CO., LTD., priority 2022, published 2025)
